The values below come from ChEMBL document CHEMBL2331237, “Amides of 4-hydroxy-8-methanesulfonylamino-quinoline-2-carboxylic acid as zinc-dependent inhibitors of Lp-PLA₂” (Bioorg Med Chem Lett, 2013).

The experiment concerns the target T1, Platelet-activating factor acetylhydrolase (Homo sapiens, UniProt Q13093).
T1 sequence (Q13093 whole entry): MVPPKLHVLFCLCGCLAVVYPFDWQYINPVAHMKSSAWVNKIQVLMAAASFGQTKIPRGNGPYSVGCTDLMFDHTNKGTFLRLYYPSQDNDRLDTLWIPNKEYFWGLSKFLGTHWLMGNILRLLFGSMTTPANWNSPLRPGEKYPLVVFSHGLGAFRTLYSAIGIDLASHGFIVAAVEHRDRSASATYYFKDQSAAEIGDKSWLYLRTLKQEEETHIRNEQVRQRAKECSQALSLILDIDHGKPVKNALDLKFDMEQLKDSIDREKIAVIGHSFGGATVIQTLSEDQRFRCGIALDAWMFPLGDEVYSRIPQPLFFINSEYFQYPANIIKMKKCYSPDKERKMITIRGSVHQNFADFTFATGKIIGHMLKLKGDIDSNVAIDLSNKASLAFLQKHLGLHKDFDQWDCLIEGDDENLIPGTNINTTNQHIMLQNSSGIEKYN
Put plainly: Inhibition of human plasma Lp-PLA2 using 2- thio-PAF as substrate incubated for 20 mins prior to substrate addition measured after 1 hr.

The molecule `CS(=O)(=O)Nc1cccc2c(O)cc(C(=O)NC3CCCCCCCCCCCCC3)nc12` showed a concentration for half-maximal inhibition (IC50) of over 100 µM.

In the case of `COc1cc(NS(=O)(=O)c2ccc(C)cc2)c2ncccc2c1`, the IC50 is over 100 µM.

Molecule `CCOC(=O)COc1cc(NS(=O)(=O)c2ccc(C)cc2)c2nc(C)ccc2c1` had an IC50 of over 100 µM.
